Data reported in US10806785B2, “Immunomodulator compounds and methods of use” (Incyte Corporation, priority 2016, dated 2020).

molecular target: PD-1/PD-L1 (Homo sapiens (Human), UniProt Q9NZQ7); experiment: PD-1/PD-L1 binding assay (HTRF)
Procedure, shortened: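 Fc-tagged human PD-1 (25-167) and His-tagged PD-L1 (19-238), listed as […] and 10 nM final, preincubated 40 min with inhibitors in PBS pH 7.4, 0.05% Tween-20, 0.1% BSA, 1% DMSO, 25 °C. Eu anti-IgG/APC anti-His added, 60 min, 665/620 nm HTRF ratio; IC50 fitted from percent control activity.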

Sequence of PD-1/PD-L1 (Q9NZQ7 19-238): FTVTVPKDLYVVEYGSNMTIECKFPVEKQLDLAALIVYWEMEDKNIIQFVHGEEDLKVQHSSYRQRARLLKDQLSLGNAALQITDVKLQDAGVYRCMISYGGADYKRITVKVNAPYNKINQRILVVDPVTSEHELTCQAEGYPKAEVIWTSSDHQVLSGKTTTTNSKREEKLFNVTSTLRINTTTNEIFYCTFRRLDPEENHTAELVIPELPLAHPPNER

Compound | IC50
Cc1c(NC(=O)c2nc3c(n2C)CCN(CC2CC2)C3)cccc1-c1cccc(NC(=O)c2nc3c(n2C)CCN(CC[C@H]2CC[C@H](C(=O)O)CC2)C3)c1Cl [Example 128, trans-4-(2-(2-((2-chloro-3′-(5-(cyclopropylmethyl)-1-methyl-4,5,6,7-tetrahydro-1H-imidazo[4,5-c]pyridine-2-carboxamido)-2′-methyl-[1,1′-biphenyl]-3-yl)carbamoyl)-1-methyl-1,4,6,7-tetrahydro-5H-imidazo[4,5-c]pyridin-5-yl)ethyl)cyclohexane-1-carboxylic acid] | ≤ 10 nM
Cc1c(NC(=O)c2nc3c(n2C)CCN(C2CCC(O)CC2)C3)cccc1-c1cccc(NC(=O)c2nc3c(n2C)CCN(C[C@H]2CC[C@@H](C(=O)O)CC2)C3)c1Cl (single isomer, unassigned) [Compound 138-1, cis-4-((2-((2-chloro-3′-(5-(4-hydroxycyclohexyl)-1-methyl-4,5,6,7-tetrahydro-1H-imidazo[4,5-c]pyridine-2-carboxamido)-2′-methyl-[1,1′-biphenyl]-3-yl)carbamoyl)-1-methyl-1,4,6,7-tetrahydro-5H-imidazo[4,5-c]pyridin-5-yl)methyl)cyclohexane-1-carboxylic acid] | ≤ 10 nM
Cc1c(NC(=O)c2nc3c(n2C)CCN(C[C@H]2CC[C@H](C(=O)O)CC2)C3)cccc1-c1cccc(NC(=O)c2nc3c(n2C)CCN(C2CCOCC2)C3)c1Cl [Example 110, trans-4-((2-((2′-chloro-2-methyl-3′-(1-methyl-5-(tetrahydro-2H-pyran-4-yl)-4,5,6,7-tetrahydro-1H-imidazo[4,5-c]pyridine-2-carboxamido)-[1,1′-biphenyl]-3-yl)carbamoyl)-1-methyl-1,4,6,7-tetrahydro-5H-imidazo[4,5-c]pyridin-5-yl)methyl)cyclohexane-1-carboxylic acid] | ≤ 10 nM
Cc1c(NC(=O)c2cc(CN3CC[C@@H](O)C3)cn(C)c2=O)cccc1-c1cccc(NC(=O)c2nc3c(n2C)CCN(C)C3)c1Cl [Example 48, (R)—N-(2-chloro-3′-(5-((3-hydroxypyrrolidin-1-yl)methyl)-1-methyl-2-oxo-1,2-dihydropyridine-3-carboxamido)-2′-methylbiphenyl-3-yl)-1,5-dimethyl-4,5,6,7-tetrahydro-1H-imidazo[4,5-c]pyridine-2-carboxamide] | ≤ 10 nM
CN1CCc2c(nc(C(=O)Nc3cccc(-c4cccc(NC(=O)c5nc6c(n5C)CCN(C[C@H]5CC[C@H](C(=O)O)CC5)C6)c4Cl)c3C#N)n2C)C1 [Compound 149, trans-4-((2-((2-chloro-2′-cyano-3′-(1,5-dimethyl-4,5,6,7-tetrahydro-1H-imidazo[4,5-c]pyridine-2-carboxamido)-[1,1′-biphenyl]-3-yl)carbamoyl)-1-methyl-1,4,6,7-tetrahydro-5H-imidazo[4,5-c]pyridin-5-yl)methyl)cyclohexane-1-carboxylic acid] | ≤ 10 nM
Cc1c(NC(=O)c2nc3c(n2C)CCN(C[C@H](C)O)C3)cccc1-c1cccc(NC(=O)c2nc3c(n2C)CCN(CCO)C3)c1Cl [Example 42, (S)—N-(2′-chloro-3′-(5-(2-hydroxyethyl)-1-methyl-4,5,6,7-tetrahydro-1H-imidazo[4,5-c]pyridine-2-carboxamido)-2-methylbiphenyl-3-yl)-5-(2-hydroxypropyl)-1-methyl-4,5,6,7-tetrahydro-1H-imidazo[4,5-c]pyridine-2-carboxamide] | ≤ 10 nM
C[C@H](O)CN1CCc2c(nc(C(=O)Nc3cccc(-c4cccc(NC(=O)c5nc6c(n5C)CCN(C)C6)c4Cl)c3Cl)n2C)C1 [Example 27, (S)—N-(2,2′-dichloro-3′-(1,5-dimethyl-4,5,6,7-tetrahydro-1H-imidazo[4,5-c]pyridine-2-carboxamido)biphenyl-3-yl)-5-(2-hydroxypropyl)-1-methyl-4,5,6,7-tetrahydro-1H-imidazo[4,5-c]pyridine-2-carboxamide] | ≤ 10 nM
CC(C)N1CCc2c(nc(C(=O)Nc3cccc(-c4cccc(NC(=O)c5nc6c(n5C)CCN(CC[C@H]5CC[C@H](C(=O)O)CC5)C6)c4C#N)c3Cl)n2C)C1 [Compound 155, trans-4-(2-(2-((2′-chloro-2-cyano-3′-(5-isopropyl-1-methyl-4,5,6,7-tetrahydro-1H-imidazo[4,5-c]pyridine-2-carboxamido)-[1,1′-biphenyl]-3-yl)carbamoyl)-1-methyl-1,4,6,7-tetrahydro-5H-imidazo[4,5-c]pyridin-5-yl)ethyl)cyclohexane-1-carboxylic acid] | ≤ 10 nM
C[C@@H](O)CN1CCc2c(nc(C(=O)Nc3cccc(-c4cccc(NC(=O)c5nc6c(n5C)CCN(CC57CCC(C(=O)O)(CC5)C7)C6)c4Cl)c3Cl)n2C)C1 [Example 182, (R)-4-((2-(2,2′-dichloro-3′-(5-(2-hydroxypropyl)-1-methyl-4,5,6,7-tetrahydro-1H-imidazo[4,5-c]pyridine-2-carboxamido)biphenyl-3-ylcarbamoyl)-1-methyl-6,7-dihydro-1H-imidazo[4,5-c]pyridin-5(4H)-yl)methyl)bicyclo[2.2.1]heptane-1-carboxylic acid] | ≤ 10 nM
Cn1c(C(=O)Nc2cccc(-c3cccc(NC(=O)c4nc5c(n4C)CCN(C[C@H]4CC[C@H](C(=O)O)CC4)C5)c3Cl)c2Cl)nc2c1CCNC2 [Example 61, trans-4-((2-(2,2′-dichloro-3′-(1-methyl-4,5,6,7-tetrahydro-1H-imidazo[4,5-c]pyridine-2-carboxamido)biphenyl-3-ylcarbamoyl)-1-methyl-6,7-dihydro-1H-imidazo[4,5-c]pyridin-5(4H)-yl)methyl)cyclohexane-1-carboxylic acid] | ≤ 10 nM
CCN(C)CC(=O)N1Cc2nc(-c3cccc(-c4cccc(NC(=O)c5nc6c(n5C)CCN(C[C@H]5CC[C@H](C(=O)O)CC5)C6)c4Cl)c3Cl)oc2C1 [Compound 172, trans-4-((2-((2,2′-dichloro-3′-(5-(N-ethyl-N-methylglycyl)-5,6-dihydro-4H-pyrrolo[3,4-d]oxazol-2-yl)-[1,1′-biphenyl]-3-yl)carbamoyl)-1-methyl-1,4,6,7-tetrahydro-5H-imidazo[4,5-c]pyridin-5-yl)methyl)cyclohexane-1-carboxylic acid] | ≤ 10 nM
CCN1CCc2c(nc(C(=O)Nc3cccc(-c4cccc(NC(=O)c5nc6c(n5C)CCN(C[C@H]5CC[C@H](C(=O)O)CC5)C6)c4Cl)c3Cl)n2C)C1 [Example 62, trans-4-((2-(2,2′-dichloro-3′-(5-ethyl-1-methyl-4,5,6,7-tetrahydro-1H-imidazo[4,5-c]pyridine-2-carboxamido)biphenyl-3-ylcarbamoyl)-1-methyl-6,7-dihydro-1H-imidazo[4,5-c]pyridin-5(4H)-yl)methyl)cyclohexane-1-carboxylic acid] | ≤ 10 nM

Now from value to compound:

IC50 | Compound
≤ 10 nM | Cc1c(NC(=O)c2nc3c(n2C)CCN(CC24CCC(C(=O)O)(CC2)CC4)C3)cccc1-c1cccc(NC(=O)c2nc3c(n2C)CCN(C)C3)c1Cl [Example 103, 4-((2-(2′-chloro-3′-(1,5-dimethyl-4,5,6,7-tetrahydro-1H-imidazo[4,5-c]pyridine-2-carboxamido)-2-methylbiphenyl-3-ylcarbamoyl)-1-methyl-6,7-dihydro-1H-imidazo[4,5-c]pyridin-5(4H)-yl)methyl)bicyclo[2.2.2]octane-1-carboxylic acid]
≤ 10 nM | Cc1c(NC(=O)c2nc3c(n2C)CCN(C[C@H](O)CO)C3)cccc1-c1cccc(NC(=O)c2nc3c(n2C)CCN(C)C3)c1Cl [Example 32, (S)—N-(2′-chloro-3′-(1,5-dimethyl-4,5,6,7-tetrahydro-1H-imidazo[4,5-c]pyridine-2-carboxamido)-2-methylbiphenyl-3-yl)-5-(2,3-dihydroxypropyl)-1-methyl-4,5,6,7-tetrahydro-1H-imidazo[4,5-c]pyridine-2-carboxamide]
≤ 10 nM | Cn1c(C(=O)Nc2cccc(-c3cccc(NC(=O)c4nc5c(n4C)CCN(CC[C@H]4CC[C@H](C(=O)O)CC4)C5)c3Cl)c2Cl)nc2c1CCN(CCO)C2 [Example 93, trans-4-(2-(2-((2,2′-dichloro-3′-(5-(2-hydroxyethyl)-1-methyl-4,5,6,7-tetrahydro-1H-imidazo[4,5-c]pyridine-2-carboxamido)-[1,1′-biphenyl]-3-yl)carbamoyl)-1-methyl-1,4,6,7-tetrahydro-5H-imidazo[4,5-c]pyridin-5-yl)ethyl)cyclohexane-1-carboxylic acid]
≤ 10 nM | CCN(C)CC(=O)N1Cc2nc(-c3cccc(-c4cccc(NC(=O)c5nc6c(n5C)CCN(C5CCC(C)(C(=O)O)CC5)C6)c4C)c3C)oc2C1 (stereo not drawn) [Compound 173, 4-(2-((3′-(5-(N-ethyl-N-methylglycyl)-5,6-dihydro-4H-pyrrolo[3,4-d]oxazol-2-yl)-2,2′-dimethyl-[1,1′-biphenyl]-3-yl)carbamoyl)-1-methyl-1,4,6,7-tetrahydro-5H-imidazo[4,5-c]pyridin-5-yl)-1-methylcyclohexane-1-carboxylic acid]
≤ 10 nM | Cn1c(C(=O)Nc2cccc(-c3cccc(NC(=O)c4nc5c(n4C)CCN(C4CCC(C(=O)O)CC4)C5)c3Cl)c2Cl)nc2c1CCN(C1CCOCC1)C2 (stereo not drawn) [Example 97, 4-(2-((2,2′-dichloro-3′-(1-methyl-5-(tetrahydro-2H-pyran-4-yl)-4,5,6,7-tetrahydro-1H-imidazo[4,5-c]pyridine-2-carboxamido)-[1,1′-biphenyl]-3-yl)carbamoyl)-1-methyl-1,4,6,7-tetrahydro-5H-imidazo[4,5-c]pyridin-5-yl)cyclohexane-1-carboxylic acid]
≤ 10 nM | Cn1c(C(=O)Nc2cccc(-c3cccc(NC(=O)c4nc5c(n4C)CCN(C4CCOCC4)C5)c3Cl)c2Cl)nc2c1CCN(C[C@H]1CC[C@@H](C(=O)O)CC1)C2 [Example 73, cis-4-((2-((2,2′-dichloro-3′-(1-methyl-5-(tetrahydro-2H-pyran-4-yl)-4,5,6,7-tetrahydro-1H-imidazo[4,5-c]pyridine-2-carboxamido)-[1,1′-biphenyl]-3-yl)carbamoyl)-1-methyl-1,4,6,7-tetrahydro-5H-imidazo[4,5-c]pyridin-5-yl)methyl)cyclohexane-1-carboxylic acid]
